Experimental data from ChEMBL document CHEMBL4823263, “Discovery of 2-(3-(3-Carbamoylpiperidin-1-yl)phenoxy)acetic Acid Derivatives as Novel Small-Molecule Inhibitors of the β-Catenin/B-Cell Lymphoma 9 Protein-Protein Interaction” (J Med Chem, 2021).
Calls of active or inactive are those of the source. The rule behind the calls is not given here.

Tests used:
[1] = biological target: Protein Wnt-3a (Homo sapiens) (UniProt P56704); experiment: Inhibition of Wnt3a in human SW480 cells assessed as cyclin D1 level at 30 uM incubated for […] by quantitative real-time PCR analysis relative to control; format: cell-based; set-up: scale not given: the % may be the effect or the level left
[2] = tested on: SW480; experiment: Antiproliferative activity against human SW480 cells harboring empty pcDNA3.1 vector incubated for 72 hrs by MTS assay; format: functional, cell-based; conditions: SW480, 72 h
[3] = tested on: SW480; experiment: Inhibition of Wnt/beta-catenin transactivation signalling in human SW480 cells harboring mutant tcf4 binding sites assessed as relative activity at 3.125 uM incubated for 24 hrs by FOPFlash luciferase assay relative to control; format: cell-based; set-up: scale not given: the % may be the effect or the level left
[4] = biological target: T1, Cadherin-1 (Homo sapiens) (UniProt P12830); experiment: Disruption of full length beta-catenin/E-cadherin interaction in human HCT116 cells incubated for 24 hrs by co-immunoprecipitation assay; format: cell-based; conditions: HCT-116
T1 sequence (whole entry): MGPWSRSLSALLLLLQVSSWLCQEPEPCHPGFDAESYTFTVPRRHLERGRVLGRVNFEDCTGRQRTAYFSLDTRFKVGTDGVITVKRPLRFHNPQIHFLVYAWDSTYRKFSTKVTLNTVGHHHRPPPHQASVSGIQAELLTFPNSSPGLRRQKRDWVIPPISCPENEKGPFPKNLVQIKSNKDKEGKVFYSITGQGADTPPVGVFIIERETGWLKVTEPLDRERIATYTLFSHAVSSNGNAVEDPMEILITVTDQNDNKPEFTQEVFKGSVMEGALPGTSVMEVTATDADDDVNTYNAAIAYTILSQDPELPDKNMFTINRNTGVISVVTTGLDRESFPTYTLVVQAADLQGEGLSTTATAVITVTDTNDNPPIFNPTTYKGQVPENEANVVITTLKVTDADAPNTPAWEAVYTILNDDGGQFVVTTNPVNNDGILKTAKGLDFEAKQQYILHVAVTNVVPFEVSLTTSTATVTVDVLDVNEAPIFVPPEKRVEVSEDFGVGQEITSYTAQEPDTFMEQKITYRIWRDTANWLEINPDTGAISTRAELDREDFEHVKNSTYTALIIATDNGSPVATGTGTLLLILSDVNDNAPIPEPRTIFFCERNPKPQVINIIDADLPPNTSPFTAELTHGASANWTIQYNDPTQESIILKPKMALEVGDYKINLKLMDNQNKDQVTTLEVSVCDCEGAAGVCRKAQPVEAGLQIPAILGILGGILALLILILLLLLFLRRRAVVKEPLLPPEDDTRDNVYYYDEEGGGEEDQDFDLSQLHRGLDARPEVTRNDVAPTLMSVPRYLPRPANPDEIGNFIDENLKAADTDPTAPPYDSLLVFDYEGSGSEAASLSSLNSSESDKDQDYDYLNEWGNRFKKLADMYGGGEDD

[5] = biological target: Protein Wnt-3a (Homo sapiens) (UniProt P56704); experiment: Inhibition of Wnt3a in human SW480 cells assessed as LEF1 level at 3.3 uM incubated for […] by quantitative real-time PCR analysis relative to control; format: cell-based; set-up: scale not given: the % may be the effect or the level left
[6] = biological target: Protein Wnt-3a (Mus musculus) (UniProt P27467); experiment: Inhibition of mouse wnt3a expressed in human MDA-MB-231 cells assessed as LEF1 level at 10 uM incubated for […] by quantitative real-time PCR analysis relative to control; format: cell-based; set-up: scale not given: the % may be the effect or the level left
[7] = Selectivity ratio of IC50 for human SW480 cells harboring beta-catenin pcDNA3.1 vector to IC50 for human SW480 cells harboring empty pcDNA3.1 vector
[8] = biological target: Protein Wnt-3a (Homo sapiens) (UniProt P56704); experiment: Inhibition of Wnt3a in human SW480 cells assessed as Axin2 level at 30 uM incubated for […] by quantitative real-time PCR analysis relative to control; format: cell-based; set-up: scale not given: the % may be the effect or the level left

Protein Wnt-3a (Homo sapiens), sequence (P56704 whole entry): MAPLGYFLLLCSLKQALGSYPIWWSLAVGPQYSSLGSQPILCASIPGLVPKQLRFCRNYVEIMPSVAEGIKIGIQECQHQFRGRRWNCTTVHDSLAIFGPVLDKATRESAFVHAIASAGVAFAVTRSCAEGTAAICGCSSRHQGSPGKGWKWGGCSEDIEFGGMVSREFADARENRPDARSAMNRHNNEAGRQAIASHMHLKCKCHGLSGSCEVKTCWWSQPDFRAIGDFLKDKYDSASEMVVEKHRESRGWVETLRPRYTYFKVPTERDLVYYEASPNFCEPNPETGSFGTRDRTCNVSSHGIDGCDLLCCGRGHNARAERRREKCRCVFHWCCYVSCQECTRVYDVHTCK
Protein Wnt-3a (Mus musculus), sequence (P27467 whole entry): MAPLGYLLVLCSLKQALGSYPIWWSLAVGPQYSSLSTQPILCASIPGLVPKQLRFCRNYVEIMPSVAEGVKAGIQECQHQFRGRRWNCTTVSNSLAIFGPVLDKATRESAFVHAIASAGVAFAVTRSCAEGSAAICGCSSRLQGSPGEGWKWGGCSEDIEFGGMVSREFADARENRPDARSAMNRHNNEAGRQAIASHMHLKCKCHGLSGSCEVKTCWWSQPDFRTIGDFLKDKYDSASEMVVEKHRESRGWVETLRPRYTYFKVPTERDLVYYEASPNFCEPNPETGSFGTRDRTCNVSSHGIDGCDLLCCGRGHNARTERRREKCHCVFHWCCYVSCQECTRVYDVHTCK

Question: With `CC(C)(Oc1cccc(N2CCC[C@H](C(=O)N(Cc3ccc(-c4cccs4)cc3)C3CC3)C2)c1)C(=O)NS(=O)(=O)c1ccc(C#N)cc1` as the compound, how does the Activity [1] read?
Answer: 31%

Question: And the IC50 [2]?
Answer: 19 µM

Question: What about the Activity [3] of the same compound?
Answer: 99%

Question: And the Activity [4]?
Answer: inactive

Question: And the Activity [5]?
Answer: 80%

Question: And the Activity [6]?
Answer: 81%

Question: What about the “Ratio IC50” value [7] of the same compound?
Answer: 4

Question: What about the Activity [8] of the same compound?
Answer: 42%
